Molecular target: T1, AfLPMO16 (Aspergillus fumigatus, UniProt A0A7D5FGU2)
T1 sequence (A0A7D5FGU2 20-290 limits assumed): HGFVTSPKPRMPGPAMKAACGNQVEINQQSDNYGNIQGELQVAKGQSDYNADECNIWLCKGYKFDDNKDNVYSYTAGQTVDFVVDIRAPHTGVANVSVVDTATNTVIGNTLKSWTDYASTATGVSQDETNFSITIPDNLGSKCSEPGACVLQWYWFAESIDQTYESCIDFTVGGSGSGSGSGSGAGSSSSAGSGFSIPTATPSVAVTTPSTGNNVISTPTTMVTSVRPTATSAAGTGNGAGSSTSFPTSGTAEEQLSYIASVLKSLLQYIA
Assay: spectrophotometric 1-coerulignone formation at […] nm, Lineweaver-Burk plot
Type: biochemical
Details: 5 uM hydrogen peroxide as co-substrate, 100 mM phosphate buffer pH 6.0, 30 C

A Km of 5.4 mM was found for `COc1cccc(OC)c1O` [2,6-dimethoxyphenol] in this work.

— article doi:10.1101/2020.04.24.059154v2 (biorxiv, 2021)
